Laboratory results from patent US20230357419A1, “METHODS FOR TREATING OR […] DISORDERS” (priority 2022, published 2023).

What was measured:
C57BL/6J mice = test: Repeated nitroglycerin (NTG) administration-induced behavioral sensitization: facial mechanical thresholds (von Frey), hyperalgesic priming, facial pain score; assay type: in vivo, mouse; conditions: female C57BL/6J
Protocol: Repeated nitroglycerin (NTG) administration-induced behavioral sensitization: To model chronic migraine headache, mice received repetitive intraperitoneal (i.p.) injections of nitric oxide (NO) donor NTG (10 mg/kg and 10 ml/kg in saline with 1% propylene glycol) once every 2 days for 5 times as described previously. The control mice received vehicle (saline with 1% propylene glycol, 10 ml/kg) injections every 2 days. Facial mechanical thresholds were measured at baseline and two days after each injection (before the next treatment). After the facial mechanical threshold returned to the baseline level, mice received daily i.p. injections of low-dose NTG (0.1 mg/kg). Facial mechanical thresholds were measured every 2 days to assess hyperalgesic priming.
The hair on the mouse forehead (above and between the eyes) was shaved the day before testing. […] A positive response was determined by the following criteria as previously described: mouse vigorously stroked its face with the forepaw, head withdrawal from the stimulus, or head shaking. […]
Facial pain score—aversiveness to facial mechanical stimuli: To measure the aversiveness to facial mechanical stimuli, the responses of mice to individual von Frey filaments were scored based on the most aversive behavior they display: 0) no responses; 1) detection: eye squinting, facial skin crinkling and/or a small head shaking; 2) withdrawal: head withdrawal from the filament and/or forepaw stroking of face once; 3) vigorous forepaw stroking of face 2 or more times; and 4) vigorous head shaking and/or attacking the filament.
For C57BL/6J mice, responses were measured to 0.04 gram (g), 0.07 g and 0.16 g von Frey filaments (3 applications each in ascending order). […]
Mice received intraperitoneal (i.p.) injections of NTG (10 mg/kg) or vehicle (saline with 1% propylene glycol, 10 ml/kg) once every 2 days for 5 times as described previously. Facial mechanical thresholds were measured at baseline and two days after each injection. […]

mice = conditions: intrathecal, 3 μg; cited from earlier work

Question: What does the source list for `Cc1ccc2c(c1)C1(CCN(CCc3nc(-c4ccccc4)oc3C)CC1)OC(=O)N2` [RS504393]?
Answer: NTG-induced acute or persistent facial skin hypersensitivity (C57BL/6J mice; 3 μg in 10 μl under periorbital skin, 30 minutes before and 24 hours post-NTG): did not reduce NTG-induced acute or persistent facial skin hypersensitivity; facial mechanical threshold (NTG-induced persistent facial skin hypersensitivity) (C57BL/6J mice; 3 mg/kg i.p., 8 daily injections started after established hypersensitivity, day 5-11): returned to basal level after 2 days of RS504393 treatment; hyperalgesic priming (low-dose NTG-induced facial skin hypersensitivity) (C57BL/6J mice; 3 mg/kg i.p., 8 daily injections, low-dose NTG day 20-28): low-dose NTG injections still produced robust facial skin hypersensitivity; tibial fracture/cast immobilization-induced mechanical allodynia (mice): significantly attenuated tibial fracture/cast immobilization-induced mechanical allodynia
